Data on four substances can be found in US10494414B2, “Immunoglobulin G-binding peptide” (KANEKA CORPORATION, priority 2014, dated 2019).

The test system of one test is Fab region. Particulars: Non-patent Documents 1 and 2; cited from earlier work.
The next test has as its target T1, Anti-RSV antibody - Fc (Homo sapiens, UniProt P01857).
T1 construct: a Fc region of a heavy chain is composed of CH2 and CH3; purchased CHUGAI PHARMACEUTICAL CO., LTD; Synagis
Nature of the test: Biacore surface plasmon resonance affinity for IgG-Fc of anti-RSV monoclonal antibody. In kind it is binding. From the text:
(§1) A humanized monoclonal IgG product as a raw material was fragmented into a Fab fragment and a Fc fragment using papain, and only the Fab fragment was separated and purified. Hereinafter, a method for producing IgG-Fc/IgG-Fab derived from anti-RSV monoclonal antibody (generic name: Palivizumab) is described. The term “RSV” is an abbreviation of RS virus. In the present disclosure, when other IgG-Fc and IgG-Fab were used for evaluation, the fragments were basically prepared in a similar method.
(§2) Specifically, a humanized monoclonal IgG product (“Synagis” manufactured by CHUGAI PHARMACEUTICAL CO., LTD., in the case of anti-RS virus monoclonal agent) was dissolved in a buffer for papain treatment (0.1M AcOH—AcONa, 2 mM EDTA, 1 mM cysteine, pH 5.5), and agarose immobilized by papain (“Papain Agarose from papaya latex” manufactured by SIGMA) was added thereto. The mixture was incubated with stirring by a rotator at 37° C. for about 8 hours. The IgG-Fc was purified from the reaction mixture which contained both of a Fab fragment and a Fc fragment and which was separated from the agarose immobilized by papain by recovering the IgG-Fc as a flow-through fraction of an affinity chromatography using Kappa Select column (manufactured by GE Healthcare Bioscience). The IgG-Fab was purified by recovering the IgG-Fab as a flow-through fraction in an affinity chromatography using KanCapA column (manufactured by GE Healthcare Bioscience). The obtained crude IgG-Fc solution was subjected to purification by gel filtration chromatography using Superdex 75 10/300 GL column to obtain IgG-Fc solution. In the chromatography, a standard buffer was used for equilibration and separation. The obtained crude IgG-Fab solution was similarly subjected to purification. […]
(§3) The affinity of the peptide obtained in the above-described Example 1(2) for the Fc region and Fab region of anti-RSV monoclonal antibody was evaluated using a biosensor Biacore3000 (manufactured by GE Healthcare Bioscience) utilizing surface plasmon resonance. […]
A general note: Surface plasmon resonance follows binding to a sensor surface in real time, without labels.

The test system of the next test is Anti-RSV antibody - Fab. The test is described as follows: Biacore surface plasmon resonance affinity for IgG-Fab of anti-RSV monoclonal antibody. The test is classed as binding, human.
From the text: as §1, §2, §3

Another test relates to Anti-EGFR antibody - Fab. Nature of the test: Biacore surface plasmon resonance affinity for IgG-Fab of anti-EGFR monoclonal antibody. In kind it is binding. The protocol:
The affinity of the peptide obtained in the above-described Example 1(2) for the Fc region and Fab region of anti-RSV monoclonal antibody was evaluated using a biosensor Biacore3000 (manufactured by GE Healthcare Bioscience) utilizing surface plasmon resonance. In the present Example, the IgG-Fc or IgG-Fab obtained in the above-described Example 2(1) was immobilized on a sensor tip, and the peptide solution was flowed across the sensor tip to detect the interaction between the two. The IgG-Fab or IgG-Fc was immobilized on a sensor tip CM5 by amine coupling method using N-hydroxysuccinimide (NHS) and N-ethyl-N′-(3-dimethylaminopropyl)carbodiimide hydrochloride (EDC), and ethanolamine was used for blocking. All of the sensor tip and reagents for immobilization was manufactured by GE Healthcare Bioscience. The IgG-Fab solution was diluted to about 10 times using a buffer for immobilization (10 mM AcOH—AcONa, pH 4.5), and the IgG-Fab was immobilized on the sensor tip in accordance with the protocol attached to the Biacore 3000. In addition, a reference cell as negative control was also prepared by activating another flow cell on the tip with EDC/NHS and then immobilizing ethanolamine only. Peptide solutions having concentrations of 16 nM, 64 nM or 256 nM were prepared using a running buffer (20 mM NaH2PO4—Na2HPO4, 150 mM NaCl, 0.005% P-20, pH 7.4). Each peptide solution was added to the sensor tip in a flow rate of 40 μL/min for 1 minute. Bonding response curves at the time of addition (association phase, 1 minute) and after the addition (dissociation phase, 1 minute) were sequentially obtained at a measurement temperature of 25° C. […]
(§4) Also, the affinity of the peptide according to the present invention (SEQ ID NO: 2) for IgG-Fab prepared from anti-EGFR monoclonal antibody (“Erbitux” sold by Bristol-Myers Squibb) and anti-TNFα monoclonal antibody (“Remicade” sold by Mitsubishi Tanabe Pharma Corporation) was evaluated. The IgG-Fab was prepared in a similar manner to the above-described (1), and the affinity was basically evaluated in a similar manner to the above-described (2). […]

The next test concerns Anti-TNFα antibody - Fab. The test is described as follows: Biacore surface plasmon resonance affinity for IgG-Fab of anti-TNFα monoclonal antibody. The test is classed as binding. The protocol: The affinity of the peptide obtained in the above-described Example 1(2) for the Fc region and Fab region of anti-RSV monoclonal antibody was evaluated using a biosensor Biacore3000 (manufactured by GE Healthcare Bioscience) utilizing surface plasmon resonance. In the present Example, the IgG-Fc or IgG-Fab obtained in the above-described Example 2(1) was immobilized on a sensor tip, and the peptide solution was flowed across the sensor tip to detect the interaction between the two. The IgG-Fab or IgG-Fc was immobilized on a sensor tip CM5 by amine coupling method using N-hydroxysuccinimide (NHS) and N-ethyl-N′-(3-dimethylaminopropyl)carbodiimide hydrochloride (EDC), and ethanolamine was used for blocking. All of the sensor tip and reagents for immobilization was manufactured by GE Healthcare Bioscience. The IgG-Fab solution was diluted to about 10 times using a buffer for immobilization (10 mM AcOH—AcONa, pH 4.5), and the IgG-Fab was immobilized on the sensor tip in accordance with the protocol attached to the Biacore 3000. […]
as §4
Each peptide was prepared in a similar method to the above-described Example 1 except that the combination of single-stranded oligo DNAs shown in Table 3 was used for preparing expression plasmid. […] As representative data, the affinity for IgG-Fab of anti-TNFα monoclonal antibody was evaluated by a similar manner to the above-described Example 2. […] For example, the value in the left graph is logarithm (Log 10) of a value calculated by dividing an affinity constant (KA) of each peptide by an affinity constant of SEQ ID NO: 2. […]

For test [1], the target named is T2, IgG-Fc of anti-TNFα monoclonal antibody (Homo sapiens, UniProt P01857).
T2 construct: a Fc region of a heavy chain is composed of CH2 and CH3; purchased Mitsubishi Tanabe Pharma Corporation Remicade
Nature of the test: Binding response versus peptide concentration on immobilized IgG-Fc (Biacore). To be noted: about 10000 RU immobilized, peptide 25-200 nM, response 1 minute after addition, SEQ ID NO: 14 specifically 0.4 to 0.6.

Test [2] has as its system IgG-Fab of anti-TNFα monoclonal antibody. Nature of the test: Binding response versus peptide concentration on immobilized IgG-Fab (Biacore). Particulars: about 10000 RU immobilized, peptide 25-200 nM, response 1 minute after addition, SEQ ID NO: 14 specifically 0.4 to 0.6.
The test system of the next test is Fab fragment. Nature of the test: Association constant of wild Protein G to Fab fragment in Biacore system. The test is classed as binding. To be noted: 25° C., pH 7.4. An excerpt:
For example, as a binding parameter, association constant (KA) and dissociation constant (KD) can be used ([NT] et al., “Real-Time Analysis Experimental Method for Interaction Between Biological Substances”, Springer-Verlag Tokyo, 1998, p. 41). An association constant between the present invention peptide and a Fc fragment or a Fab fragment can be measured by immobilizing a Fc fragment or a Fab fragment on a sensor tip and adding the present invention peptide into a flow channel under a condition of the temperature of 25° C. and pH 7.4 in Biacore system. In an experiment utilizing Biacore system, the order of a parameter may be largely changed depending on an experimental condition, an analysis method and/or the kind of used original IgG. Under such a circumstance, when an evaluation is also conducted by using a wild Protein G in the same experimental condition and analysis method, it becomes standard whether the measured association constant is larger or not in comparison with the association constant of wild Protein G to a Fab region. The performance of a conventional wild Protein G is not sufficient as a peptide which binds to both of a Fc region and a Fab region of an immunoglobulin G, since the binding force thereof to a Fab region is not sufficient. […] A wild Protein G is easily available as a commercial reagent for study. […]

[3] abbreviates: Anti-RSV antibody - Fc immobilized, 25° C., pH 7.4, 1:1 binding model.
Setting [4] is: Anti-RSV antibody - Fab immobilized, 25° C., pH 7.4, 1:1 binding model.

Take “Protein G: IgG-binding cell wall protein produced by Streptococcus sp. classified into Group G”: in the test on Fab region, the “association constant (KA) to a Fab region, times less than that to a Fc region” value is recorded as 10 times.

Turning to “SEQ ID NO: 2: IgG-binding peptide (SpG mutant) having the amino acid sequence of SEQ ID NO: 2, with N-terminal Gly-Pro-Leu-Gly-Ser from the vector (TTYKLILNGKTLTGYTTAIAADAATAEIVLKQFANDNGIDGEWTYDDATKTFTVTE; N-terminal vector-derived residues; Immunoglobulin-binding peptide)”, the koff (commonly a measure of how fast the partners let go of each other) in the test with Anti-RSV antibody - Fc (setting [3]) was 0.028 s⁻¹; with Anti-RSV antibody - Fab (setting [4]), 0.003 s⁻¹; with Anti-EGFR antibody - Fab (peptide 25, 100, 400 nM) it was 0.039 s⁻¹; in the test on Anti-TNFα antibody - Fab (peptide 25, 100, 400 nM), 0.01 s⁻¹. The kon in the test with Anti-RSV antibody - Fc (setting [3]) stood at 97000 s/M; in the test on Anti-RSV antibody - Fab (setting [4]), 66000 s/M; with Anti-EGFR antibody - Fab (peptide 25, 100, 400 nM) it was 252000 s/M; with Anti-TNFα antibody - Fab (peptide 25, 100, 400 nM), 413000 s/M. Also, the KA in the test with Anti-RSV antibody - Fc (Anti-RSV antibody - Fc, KA=kon/koff) was found to be 3.5e+06 M⁻¹; in the test on Anti-RSV antibody - Fab (Anti-RSV antibody - Fab, KA=kon/koff), 2e+07 M⁻¹; in the test on Anti-EGFR antibody - Fab (KA=kon/koff) it was 6.5e+07 M⁻¹; in the test on Anti-TNFα antibody - Fab (KA=kon/koff) it was 4e+07 M⁻¹.

On to “SEQ ID NO: 14: IgG-binding peptide; difference from SEQ ID NO: 2: Xaa21 = Asp, Xaa28 = Lys (TTYKLILNGKTLTGYTTAIADDAATAEKVLKQFANDNGIDGEWTYDDATKTFTVTE; Immunoglobulin-binding peptide)”, for which the “inclination of approximate curve of binding response versus peptide concentration” value in test [1] and in test [2] was “about 0.5” in each case.

Regarding “wild Protein G: conventional wild Protein G, available as a commercial reagent for study”, in the test on Fab fragment, the “association constant KA to a Fab fragment, as an order” value is recorded as “about 10^5”.
